From patent publication US20220289794A1, “SYNTHETIC ANTIMICROBIAL PEPTIDES” (priority 2019, published 2022)
Values after ≈ are worked out from the molar mass of the structure shown. Read-outs that look alike come from different tables or passages of the source. Non-standard residues stand in square brackets, D forms with d. Residues, ends and D or L forms follow the SMILES beside them. dDip = N[C@@H](C(=O)O)C(c1ccccc1)c1ccccc1; 2Nal = N[C@@H](Cc1ccc2ccccc2c1)C(=O)O; d2Nal = N[C@H](Cc1ccc2ccccc2c1)C(=O)O

Columns and labels:
[1] = tested on: Methicillin-resistant Staphylococcus aureus MRSA (ATCC BAA-1556); details: ATCC BAA-1556
[2] = tested on: S. aureus ATCC 29213; details: ATCC 29213
[3] = tested on: Pseudomonas aeruginosa (ATCC 27883)
[4] = tested on: Escherichia coli (ATCC 25922); details: ATCC 25922
[5] = in vitro; details: human, fresh human red blood cells (washed), pH 7.4

Row | Structure (SMILES) | MIC MRSA ATCC BAA-1556 [1] [µg/mL] | MIC S. aureus ATCC 29213 [2] [µg/mL] | MIC P. aeruginosa ATCC 27883 ([3]; ATCC 27883) [µg/mL] | MIC E. coli ATCC 25922 [4] [µg/mL] | HC50 at 0.5 h [5] [µg/mL] | MIC P. aeruginosa ATCC 27883 ([3]; P. aeruginosa ATCC 27883) [µg/mL]
1 | NCCCC[C@H]1NC(=O)[C@H](Cc2ccc3ccccc3c2)NC(=O)[C@H](Cc2ccc3ccccc3c2)NC(=O)[C@H](Cc2c[nH]c3ccccc23)NC(=O)[C@@H](CCCCN)NC(=O)[C@@H](CCCCN)NC(=O)[C@@H](CCCCN)NC(=O)[C@@H](CCCCN)NC1=O [IFX-134, c[lys-lys-lys-lys-lys-Trp-NaI-NaI]] (cyclo([2Nal][2Nal][dK][dK][dK][dK][dK]W)) | 12.5 (≈ 10.2 µM) | 12.5 (≈ 10.2 µM) | 128 (≈ 105 µM) | 128 (≈ 105 µM) | 890 | –
2 | N=C(N)NCCC[C@H]1NC(=O)[C@H](Cc2ccc3ccccc3c2)NC(=O)[C@H](Cc2ccc3ccccc3c2)NC(=O)[C@@H](Cc2c[nH]c3ccccc23)NC(=O)[C@@H](CCCNC(=N)N)NC(=O)[C@@H](CCCNC(=N)N)NC(=O)[C@@H](CCCNC(=N)N)NC(=O)[C@@H](CCCNC(=N)N)NC1=O [IFX-123, c[arg-arg-arg-arg-arg-trp-NaI-NaI]] (cyclo([2Nal][2Nal][dR][dR][dR][dR][dR][dW])) | 3.1 (≈ 2.28 µM) | 3.1 (≈ 2.28 µM) | 16 (≈ 11.8 µM) | 16 (≈ 11.8 µM) | 190 | –
3 | N=C(N)NCCC[C@H]1NC(=O)[C@@H](CCCNC(=N)N)NC(=O)[C@@H](CCCNC(=N)N)NC(=O)[C@@H](CCCNC(=N)N)NC(=O)[C@@H](Cc2ccc3ccccc3c2)NC(=O)[C@@H](Cc2ccc3ccccc3c2)NC(=O)[C@H](Cc2c[nH]c3ccccc23)NC1=O [IFX-109, c[arg-arg-arg-arg-Trp-naI-naI]] (cyclo(W[d2Nal][d2Nal][dR][dR][dR][dR])) | 1.5 (≈ 1.24 µM) | 3.1 (≈ 2.57 µM) | – | 12.5 (≈ 10.4 µM) | 190 | 12.5 (≈ 10.4 µM)
4 | N=C(N)NCCC[C@@H]1NC(=O)[C@H](CCCNC(=N)N)NC(=O)[C@H](CCCNC(=N)N)NC(=O)[C@H](Cc2ccc3ccccc3c2)NC(=O)[C@@H](Cc2ccc3ccccc3c2)NC(=O)[C@H](Cc2c[nH]c3ccccc23)NC(=O)[C@H](CCCNC(=N)N)NC1=O [IFX-103, c[Arg-Arg-Arg-Arg-Trp-naI-NaI]] (cyclo([2Nal]RRRRW[d2Nal])) | 3.1 (≈ 2.57 µM) | 3.1 (≈ 2.57 µM) | – | 12.5 (≈ 10.4 µM) | 170 | 12.5 (≈ 10.4 µM)
5 | N=C(N)NCCC[C@@H]1NC(=O)[C@H](Cc2ccc3ccccc3c2)NC(=O)[C@H](Cc2ccc3ccccc3c2)NC(=O)[C@H](Cc2c[nH]c3ccccc23)NC(=O)[C@H](CCCNC(=N)N)NC(=O)[C@@H](CCCNC(=N)N)NC(=O)[C@H](CCCNC(=N)N)NC1=O [IFX-106, c[Arg-Arg-arg-Arg-Trp-NaI-NaI]] (cyclo([2Nal][2Nal]RR[dR]RW)) | 1.5 (≈ 1.24 µM) | 1.5 (≈ 1.24 µM) | – | 25 (≈ 20.7 µM) | 175 | 12.5 (≈ 10.4 µM)
6 | N=C(N)NCCC[C@@H]1NC(=O)[C@@H](CCCNC(=N)N)NC(=O)[C@H](CCCNC(=N)N)NC(=O)[C@@H](CCCNC(=N)N)NC(=O)[C@@H](Cc2ccc3ccccc3c2)NC(=O)[C@@H](Cc2ccc3ccccc3c2)NC(=O)[C@H](Cc2c[nH]c3ccccc23)NC1=O [IFX-110, c[arg-Arg-arg-Arg-Trp-naI-naI]] (cyclo([dR]R[dR]RW[d2Nal][d2Nal])) | 1.5 (≈ 1.24 µM) | 3.1 (≈ 2.57 µM) | – | 12.5 (≈ 10.4 µM) | 225 | 12.5 (≈ 10.4 µM)
7 | NCCCC[C@@H]1NC(=O)[C@H](CCCCN)NC(=O)[C@H](CCCCN)NC(=O)[C@@H](Cc2ccc3ccccc3c2)NC(=O)[C@@H](Cc2ccc3ccccc3c2)NC(=O)[C@@H](Cc2c[nH]c3ccccc23)NC(=O)[C@H](CCCCN)NC(=O)[C@H](CCCCN)NC1=O [IFX-132, c[Lys-Lys-Lys-Lys-Lys-trp-naI-naI]] (cyclo(KKKKK[dW][d2Nal][d2Nal])) | 12.5 (≈ 10.2 µM) | 12.5 (≈ 10.2 µM) | 128 (≈ 105 µM) | 128 (≈ 105 µM) | 930 | –
8 | N=C(N)NCCC[C@@H]1NC(=O)[C@H](CCCNC(=N)N)NC(=O)[C@@H](Cc2ccc3ccccc3c2)NC(=O)[C@@H](Cc2ccc3ccccc3c2)NC(=O)[C@@H](Cc2c[nH]c3ccccc23)NC(=O)[C@@H](CCCNC(=N)N)NC(=O)[C@@H](CCCNC(=N)N)NC1=O [IFX-118, c[Arg-Arg-arg-arg-trp-naI-naI]] (cyclo(RR[dR][dR][dW][d2Nal][d2Nal])) | 3.1 (≈ 2.57 µM) | – | 16 (≈ 13.3 µM) | 16 (≈ 13.3 µM) | 210 | –
9 | N=C(N)NCCC[C@H]1NC(=O)[C@@H](CCCNC(=N)N)NC(=O)[C@@H](CCCNC(=N)N)NC(=O)[C@@H](Cc2ccc3ccccc3c2)NC(=O)[C@@H](Cc2c[nH]c3ccccc23)NC(=O)[C@@H](Cc2ccc3ccccc3c2)NC(=O)[C@@H](CCCNC(=N)N)NC1=O [IFX-142, c[arg-arg-arg-arg-naI-trp-naI]] (cyclo([dR][dR][dR][dR][d2Nal][dW][d2Nal])) | 3.1 (≈ 2.57 µM) | – | 32 (≈ 26.5 µM) | 16 (≈ 13.3 µM) | 285 | –
10 | N=C(N)NCCC[C@@H]1NC(=O)[C@H](CCCNC(=N)N)NC(=O)[C@@H](CCCNC(=N)N)NC(=O)[C@@H](CCCNC(=N)N)NC(=O)[C@@H](Cc2ccc3ccccc3c2)NC(=O)[C@@H](Cc2ccc3ccccc3c2)NC(=O)[C@@H](Cc2c[nH]c3ccccc23)NC1=O [IFX-119, c[arg-arg-Arg-Arg-trp-naI-naI]] (cyclo([dR][dR]RR[dW][d2Nal][d2Nal])) | – | – | 32 (≈ 26.5 µM) | 16 (≈ 13.3 µM) | 200 | –
11 | N=C(N)NCCC[C@@H]1NC(=O)[C@H](CCCNC(=N)N)NC(=O)[C@@H](CCCNC(=N)N)NC(=O)[C@@H](CCCNC(=N)N)NC(=O)[C@@H](Cc2ccc3ccccc3c2)NC(=O)[C@@H](Cc2ccc3ccccc3c2)NC(=O)[C@H](Cc2c[nH]c3ccccc23)NC1=O [IFX-117, c[arg-arg-Arg-Arg-Trp-naI-naI]] (cyclo([dR][dR]RRW[d2Nal][d2Nal])) | – | – | 32 (≈ 26.5 µM) | 32 (≈ 26.5 µM) | 190 | –
12 | N=C(N)NCCC[C@@H]1NC(=O)[C@H](CCCNC(=N)N)NC(=O)[C@@H](CCCNC(=N)N)NC(=O)[C@@H](CCCNC(=N)N)NC(=O)[C@H](Cc2ccc3ccccc3c2)NC(=O)[C@H](Cc2ccc3ccccc3c2)NC(=O)[C@@H](Cc2c[nH]c3ccccc23)NC1=O [IFX-121, c[arg-arg-Arg-Arg-trp-NaI-NaI]] (cyclo([dR][dR]RR[dW][2Nal][2Nal])) | 6.2 (≈ 5.14 µM) | – | 32 (≈ 26.5 µM) | 32 (≈ 26.5 µM) | 425 | –
13 | N=C(N)NCCC[C@@H]1NC(=O)[C@H](Cc2ccc3ccccc3c2)NC(=O)[C@H](Cc2ccc3ccccc3c2)NC(=O)[C@H](Cc2ccc3ccccc3c2)NC(=O)[C@@H](CCCNC(=N)N)NC(=O)[C@H](CCCNC(=N)N)NC(=O)[C@H](CCCNC(=N)N)NC1=O [IFX-077, c[Arg-Arg-Arg-arg-NaI-NaI-NaI]] (cyclo(RRR[dR][2Nal][2Nal][2Nal])) | – | – | 12.5 (≈ 10.3 µM) | – | 100 | –
14 | N=C(N)NCCC[C@@H]1NC(=O)[C@@H](CCCNC(=N)N)NC(=O)[C@H](CCCNC(=N)N)NC(=O)[C@@H](Cc2ccc3ccccc3c2)NC(=O)[C@@H](Cc2ccc3ccccc3c2)NC(=O)[C@@H](Cc2ccc3ccccc3c2)NC(=O)[C@@H](CCCNC(=N)N)NC1=O [IFX-084, c[Arg-arg-Arg-arg-naI-naI-naI]] (cyclo(R[dR]R[dR][d2Nal][d2Nal][d2Nal])) | 1.5 (≈ 1.23 µM) | 3.1 (≈ 2.55 µM) | 12.5 (≈ 10.3 µM) | – | 400 | –
15 | N=C(N)NCCC[C@@H]1NC(=O)[C@@H](CCCNC(=N)N)NC(=O)[C@H](CCCNC(=N)N)NC(=O)[C@@H](C(c2ccccc2)c2ccccc2)NC(=O)[C@@H](C(c2ccccc2)c2ccccc2)NC(=O)[C@@H](C(c2ccccc2)c2ccccc2)NC(=O)[C@@H](CCCNC(=N)N)NC1=O [IFX-070, c[Arg-arg-Arg-arg-dip-dip-dip]] (cyclo(R[dR]R[dR][dDip][dDip][dDip])) | 1.5 (≈ 1.16 µM) | 3.1 (≈ 2.39 µM) | 12.5 (≈ 9.66 µM) | – | 340 | –
16 | N=C(N)NCCC[C@@H]1NC(=O)[C@H](Cc2ccc3ccccc3c2)NC(=O)[C@H](Cc2ccc3ccccc3c2)NC(=O)[C@H](Cc2ccc3ccccc3c2)NC(=O)[C@H](CCCNC(=N)N)NC(=O)[C@@H](CCCNC(=N)N)NC(=O)[C@H](CCCNC(=N)N)NC1=O [IFX-078, c[Arg-Arg-arg-Arg-NaI-NaI-NaI]] (cyclo(RR[dR]R[2Nal][2Nal][2Nal])) | – | – | 12.5 (≈ 10.3 µM) | – | 95 | –
17 | N=C(N)NCCC[C@@H]1NC(=O)[C@H](CCCNC(=N)N)NC(=O)[C@@H](Cc2ccc3ccccc3c2)NC(=O)[C@@H](Cc2ccc3ccccc3c2)NC(=O)[C@H](Cc2c[nH]c3ccccc23)NC(=O)[C@@H](CCCNC(=N)N)NC(=O)[C@@H](CCCNC(=N)N)NC1=O [IFX-116, c[Arg-Arg-arg-arg-Trp-naI-naI]] (cyclo(RR[dR][dR]W[d2Nal][d2Nal])) | – | – | 32 (≈ 26.5 µM) | 32 (≈ 26.5 µM) | 480 | –
18 | N=C(N)NCCC[C@@H]1NC(=O)[C@H](Cc2ccc3ccccc3c2)NC(=O)[C@H](Cc2ccc3ccccc3c2)NC(=O)[C@@H](Cc2c[nH]c3ccccc23)NC(=O)[C@@H](CCCNC(=N)N)NC(=O)[C@@H](CCCNC(=N)N)NC(=O)[C@H](CCCNC(=N)N)NC1=O [IFX-120, c[Arg-Arg-arg-arg-trp-NaI-NaI]] (cyclo(RR[dR][dR][dW][2Nal][2Nal])) | – | – | 32 (≈ 26.5 µM) | 32 (≈ 26.5 µM) | 195 | –
